{"source": "patent US20260021122A1", "about": "“CANNABINOIDS AND USES THEREOF IN TREATMENT OF A DISEASE” (TECHNION RESEARCH & DEVELOPMENT FOUNDATION LIMITED, priority 2022, published 2026)", "key": {"CSF-1 [1]": {"test_system": "CSF-1", "assay": "ELISA of secreted CSF-1 in media of A375 cells", "format": "cell-based, human", "details": "1.5 μg/ml CBG, 2 μg/ml 3704, 6 μg/ml CAN", "experimental": "The media from B16F10 and A375 cell lines, or homogenates from B16F10 tumors, that were treated as indicated for 24 hours, were collected and the protein concentration of MCP-1, MIP-2, C-C Motif Chemokine Ligand 5 (CCL5), and CSF-1 were measured by Quantikine Mouse M-CSF Immunoassay solid-phase ELISA kit (R&D systems, Cat #MMC00) as described in the manufacture's protocol."}, "CSF-1 [2]": {"test_system": "CSF-1", "assay": "CSF-1 protein levels in B16F10 cells by confocal microscopy and western blot", "format": "cell-based, murine", "details": "1.5 μg/ml CBG or 2 μg/ml 3704, 24 hours, both methods", "experimental": "B16F10 cells were seeded on 13 mm coverslips (Bar Naor Ltd., Cat #BN1001-13-1CN) and treated with either synthetic CBG or Cannabis extract 3704 for 24 hours. Then, cells were fixed at room temperature with 4% PFA (Electron Microscopy Sciences, Cat #15710) in PBS (Sartorius, Cat #02-023-1A) for 20 minutes, permeabilized by 0.3% Triton-100× (Sigma, Cat #T8787) in PBS for 10 minutes and Blocked with a solution containing 5% Normal Goat Serum (Abcam, Cat #ab7481), 0.25% Gelatin (Sigma-Aldrich, Cat #G7041) and 0.1% Triton-X100 in PBS for 1 hour. […] Analysis was conducted using the IMARIS software and results were calculated using the formula: mean AF-488 intensity divided by the number of nuclei.\nB16F10 cells, and sorted MO-MDSC and PMN-MDSC achieved as described, were lysed in RIPA buffer (Sigma, Cat #R0278) supplemented with Protease/Phosphatase Inhibitor Cocktail (Cell signaling, Cat #5872S) on ice for 20 minutes. Total protein concentrations were measured using the detergent-compatible protein assay (Bio-Rad, Cat #5000113 and 5000114) and equal amounts were loaded onto a 4%-20% gradient gel (Invitrogen, Cat #XPO4202) and semidry transferred into a nitrocellulose membrane (Bio-Rad, Cat #1704159). […]"}}}
{"smiles": "CCCCCc1cc(O)c(C/C=C(\\C)CCC=C(C)C)c(O)c1", "note": "[CBG, cannabigerol]", "values": [{"measurement": "CSF-1 secretion by A375 cells", "setting": "CSF-1 [1]", "value": "reduced CSF-1 secretion"}, {"measurement": "CSF-1 protein levels in B16F10 cells", "setting": "CSF-1 [2]", "value": "decreased CSF-1 protein levels"}]}
